Patent US20260027116A1, “Methods of Treating Chronic Graft-Versus-Host Disease Following Allogeneic Hematopoietic Stem Cell Transplantation” (Kadmon Corporation, LLC, priority 2022, published 2026)

System: patients with cGVHD
Details: Cohort 1 200 mg QD
Description: All responses were assessed by the investigators.
Reported Adverse Events. […] All-cause mortality data collected during the study were assessed for all enrolled participants. Disease progression related death was not reported as AE.
Number of Participants With Treatment-emergent Adverse Events (TEAEs), and Treatment-emergent Serious Adverse Events (TESAEs). […] TEAEs included both SAEs and non-SAEs. […] Analysis was performed on safety population which included all participants who received at least 1 dose of study medication.

CC(C)NC(=O)COc1cccc(-c2nc(Nc3ccc4[nH]ncc4c3)c3ccccc3n2)c1 [Belumosudil, 2-{3-[4-(1H-indazol-5-ylamino)-2-quinazolinyl]phenoxy}-N-(propan-2-yl) acetamide]
Grade ≥3 Lung infection or pneumonia, No. (%): 1 (6)
Graft versus host disease in gastrointestinal tract: # Events: 1
Graft versus host disease in gastrointestinal tract: Affected/At Risk (%): 1/17 (5.88%)
Gynaecomastia: # Events: 0
Gynaecomastia: Affected/At Risk (%): 0/17 (0%)
Haematuria: # Events: 1
Haematuria: Affected/At Risk (%): 1/17 (5.88%)
Hair growth abnormal: # Events: 1
Hair growth abnormal: Affected/At Risk (%): 1/17 (5.88%)
Headache: # Events: 4
Headache: Affected/At Risk (%): 4/17 (23.53%)
Hodgkin's disease recurrent: # Events: 1
Hodgkin's disease recurrent: Affected/At Risk (%): 1/17 (5.88%)
Hordeolum: # Events: 1
Hordeolum: Affected/At Risk (%): 1/17 (5.88%)
Hot flush: # Events: 1
Hot flush: Affected/At Risk (%): 1/17 (5.88%)
Hyperglycemia: # Events: 2
Hyperglycemia: Affected/At Risk (%): 2/17 (11.76%)
Hyperhidrosis: # Events: 0
Hyperhidrosis: Affected/At Risk (%): 0/17 (0%)
Hyperkalaemia: # Events: 7
Hyperkalaemia: Affected/At Risk (%): 3/17 (17.65%)
Hypertension: # Events: 8
Hypertension: Affected/At Risk (%): 5/17 (29.41%)
Hyperthyroidism: # Events: 0
Hyperthyroidism: Affected/At Risk (%): 0/17 (0%)
Hypertriglyceridaemia: # Events: 0
Hypertriglyceridaemia: Affected/At Risk (%): 0/17 (0%)
Hyperuricaemia: # Events: 6
Hyperuricaemia: Affected/At Risk (%): 1/17 (5.88%)
Hypoaesthesia: # Events: 2
Hypoaesthesia: Affected/At Risk (%): 1/17 (5.88%)
Hypocalcaemia: # Events: 0
Hypocalcaemia: Affected/At Risk (%): 0/17 (0%)
Hypogonadism: # Events: 1
Hypogonadism: Affected/At Risk (%): 1/17 (5.88%)
Hypokalaemia: # Events: 1
Hypokalaemia: Affected/At Risk (%): 1/17 (5.88%)
Hypomagnesaemia: # Events: 1
Hypomagnesaemia: Affected/At Risk (%): 1/17 (5.88%)
Hyponatraemia: # Events: 1
Hyponatraemia: Affected/At Risk (%): 1/17 (5.88%)
Hypophosphataemia: # Events: 1
Hypophosphataemia: Affected/At Risk (%): 1/17 (5.88%)
Hypothermia: # Events: 0
Hypothermia: Affected/At Risk (%): 0/17 (0%)
Hypothyroidism: # Events: 2
Hypothyroidism: Affected/At Risk (%): 1/17 (5.88%)
Hypoxia: # Events: 1
Hypoxia: Affected/At Risk (%): 1/17 (5.88%)
Impaired healing: # Events: 1
Impaired healing: Affected/At Risk (%): 1/17 (5.88%)
Influenza like illness: # Events: 1
Influenza like illness: Affected/At Risk (%): 1/17 (5.88%)
Influenza: # Events: 2
Influenza: Affected/At Risk (%): 2/17 (11.76%)
Insomnia: # Events: 0
Insomnia: Affected/At Risk (%): 0/17 (0%)
Irritability: # Events: 1
Irritability: Affected/At Risk (%): 1/17 (5.88%)
Joint range of motion decreased: # Events: 0
Joint range of motion decreased: Affected/At Risk (%): 0/17 (0%)
Lacrimation increased: # Events: 0
Lacrimation increased: Affected/At Risk (%): 0/17 (0%)
Leukaemia recurrent: # Events: 1
Leukaemia recurrent: Affected/At Risk (%): 1/17 (5.88%)
Leukocytosis: # Events: 1
Leukocytosis: Affected/At Risk (%): 1/17 (5.88%)
Ligament sprain: # Events: 1
Ligament sprain: Affected/At Risk (%): 1/17 (5.88%)
Limb injury: # Events: 1
Limb injury: Affected/At Risk (%): 1/17 (5.88%)
Macular degeneration: # Events: 0
Macular degeneration: Affected/At Risk (%): 0/17 (0%)
Migraine: # Events: 0
Migraine: Affected/At Risk (%): 0/17 (0%)
Muscle spasms: # Events: 1
Muscle spasms: Affected/At Risk (%): 1/17 (5.88%)
Muscle spasticity: # Events: 1
Muscle spasticity: Affected/At Risk (%): 1/17 (5.88%)
Muscular weakness: # Events: 6
Muscular weakness: Affected/At Risk (%): 4/17 (23.53%)
Musculoskeletal chest pain: # Events: 1
Musculoskeletal chest pain: Affected/At Risk (%): 1/17 (5.88%)
Myalgia: # Events: 2
Myalgia: Affected/At Risk (%): 1/17 (5.88%)
Nail disorder: # Events: 1
Nail disorder: Affected/At Risk (%): 1/17 (5.88%)
Nasal congestion: # Events: 3
Nasal congestion: Affected/At Risk (%): 3/17 (17.65%)
Nausea: # Events: 10
Nausea: Affected/At Risk (%): 6/17 (35.29%)
Neck pain: # Events: 1
Neck pain: Affected/At Risk (%): 1/17 (5.88%)
Nephrotic syndrome: # Events: 1
Nephrotic syndrome: Affected/At Risk (%): 1/17 (5.88%)
Neuropathy peripheral: # Events: 0
Neuropathy peripheral: Affected/At Risk (%): 0/17 (0%)
Neutrophil count decreased: # Events: 1
Neutrophil count decreased: Affected/At Risk (%): 1/17 (5.88%)
Nocturia: # Events: 1
Nocturia: Affected/At Risk (%): 1/17 (5.88%)
Non-cardiac chest pain: # Events: 0
Non-cardiac chest pain: Affected/At Risk (%): 0/17 (0%)
Obesity: # Events: 2
Obesity: Affected/At Risk (%): 2/17 (11.76%)
Oedema peripheral: # Events: 3
Oedema peripheral: Affected/At Risk (%): 3/17 (17.65%)
Oedema: # Events: 0
Oedema: Affected/At Risk (%): 0/17 (0%)
Oesophageal ulcer: # Events: 0
Oesophageal ulcer: Affected/At Risk (%): 0/17 (0%)
Oral candidiasis: # Events: 3
Oral candidiasis: Affected/At Risk (%): 2/17 (11.76%)
Oropharyngeal pain: # Events: 1
Oropharyngeal pain: Affected/At Risk (%): 1/17 (5.88%)
Orthopnoea: # Events: 1
Orthopnoea: Affected/At Risk (%): 1/17 (5.88%)
Osteonecrosis: # Events: 1
Osteonecrosis: Affected/At Risk (%): 1/17 (5.88%)
Osteopenia: # Events: 0
Osteopenia: Affected/At Risk (%): 0/17 (0%)
Osteoporosis: # Events: 0
Osteoporosis: Affected/At Risk (%): 0/17 (0%)
Overdose: # Events: 1
Overdose: Affected/At Risk (%): 1/17 (5.88%)
Pain in extremity: # Events: 2
Pain in extremity: Affected/At Risk (%): 2/17 (11.76%)
Pain: # Events: 3
Pain: Affected/At Risk (%): 3/17 (17.65%)
Palpitations: # Events: 1
Palpitations: Affected/At Risk (%): 1/17 (5.88%)
Paraesthesia: # Events: 0
Paraesthesia: Affected/At Risk (%): 0/17 (0%)
Pericardial effusion: # Events: 1
Pericardial effusion: Affected/At Risk (%): 1/17 (5.88%)
Peripheral coldness: # Events: 1
Peripheral coldness: Affected/At Risk (%): 1/17 (5.88%)
Peripheral sensory neuropathy: # Events: 0
Peripheral sensory neuropathy: Affected/At Risk (%): 0/17 (0%)
Phlebitis: # Events: 0
Phlebitis: Affected/At Risk (%): 0/17 (0%)
Photophobia: # Events: 0
Photophobia: Affected/At Risk (%): 0/17 (0%)
Platelet count decreased: # Events: 3
Platelet count decreased: Affected/At Risk (%): 1/17 (5.88%)
Pleural effusion: # Events: 1
Pleural effusion: Affected/At Risk (%): 1/17 (5.88%)
Pneumonia respiratory syncytial viral: # Events: 0
Pneumonia respiratory syncytial viral: Affected/At Risk (%): 0/17 (0%)
Pneumonia: # Events: 2
Pneumonia: Affected/At Risk (%): 1/17 (5.88%)
Pollakiuria: # Events: 1
Pollakiuria: Affected/At Risk (%): 1/17 (5.88%)
Presyncope: # Events: 0
Presyncope: Affected/At Risk (%): 0/17 (0%)
Productive cough: # Events: 2
Productive cough: Affected/At Risk (%): 2/17 (11.76%)
Proteinuria: # Events: 2
Proteinuria: Affected/At Risk (%): 2/17 (11.76%)
Pruritus: # Events: 1
Pruritus: Affected/At Risk (%): 1/17 (5.88%)
Pseudomonas infection: # Events: 1
Pseudomonas infection: Affected/At Risk (%): 1/17 (5.88%)
Pulmonary mass: # Events: 0
Pulmonary mass: Affected/At Risk (%): 0/17 (0%)
Pyrexia: # Events: 3
Pyrexia: Affected/At Risk (%): 1/17 (5.88%)
